Source: paper PMC5995184, “Potent anti-leukemic activity of a specific cyclin-dependent kinase 9 inhibitor in mouse models of chronic lymphocytic leukemia” (Oncotarget, 2018)

How the values were obtained:
CDK4 = CDK4 (Homo sapiens, UniProt P11802); assay: FRET-based LANCE Ultra in vitro enzymatic kinase assay, CDK4; format: biochemical
Protocol: IC50 values for CDK inhibitors were determined using the fluorescence resonance energy transfer (FRET)-based LANCE Ultra KinaSelect Ser/Thr kit (Perkin Elmer). Kinase activity and inhibition were measured according to the manufacturer’s instructions and as previously described. […] FRET signals were recorded in a time-resolved manner in a Perkin Elmer EnVision reader. Purified cyclin-kinase pairs were obtained from the following suppliers: Carna Biosciences (CDK1-Cyclin B1, CDK6-Cyclin D3, CDK7-Cyclin H-MAT1), ProQinase (CDK2-Cyclin A) and Invitrogen (CDK9-Cyclin T1).
Data were analyzed with GraphPad Prism 7 software. Differences were assessed by unpaired or paired Student t tests if not indicated otherwise. Two-sided probabilities of less than 0.05 were considered significant. Nonlinear regression sigmoidal dose-response curve fit was used to determine the IC50 values and to generate graphs.

MEC-1 cells = assay: MEC-1 cell line apoptosis, viability, MCL-1/BCL-2 and cell cycle (flow cytometry); format: cell-based
Protocol: The MEC-1 cell line was obtained from the DSMZ (Braunschweig, Germany) and was cultured in RPMI (10% fetal bovine serum). A LDC526 stock solution was prepared with DMSO, diluted and added to the cultures to reach the specified concentrations. Samples (percentage of CD19+CD5+ CLL cells >90%) of n=37 CLL patients (Table 1) and n=6 healthy normal donor controls were used for experiments after obtaining informed consent according to institutional guidelines, approved by the Ethics Commission of the University of Essen-Duisburg. Peripheral blood mononuclear cells (PBMC) were isolated using Lymphoprep ([…] Technologies, Cologne, Germany) density gradient centrifugation and were used directly for NSG transplantation or in vitro experiments. Untouched normal donor B cells were isolated with a B cell isolation kit (Miltenyi, Bergisch Gladbach, Germany) according to the manufacturer’s instructions. For in vitro experiments, cells were maintained in RPMI supplemented with 10% fetal bovine serum, penicillin and streptomycin.
Apoptosis and cell death were determined by using Annexin V (BD Biosciences, Heidelberg, Germany) and 4′,6-Diamidin-2-phenylindol (DAPI, Sigma-Aldrich) staining. Erythrocytes of murine peripheral blood samples were lysed with NH4Cl hypotonic solution. Single cell suspensions of murine spleens were prepared as previously described. Murine cells were stained with antibodies directed against murine CD3 (clone 145-2C11), CD5 (53-7.3) and CD19 (1D3), respectively. For the detection of human cells in NSG spleens antibodies against human CD3 (clone SK7), CD4 (SK3), CD5 (L17F12), CD8 (SK1), CD19 (J3-119 or SJ25C1) and CD45 (2D1) were used (purchased from BD Bioscience, Biolegend and Beckman Coulter). Flow cytometric analysis was carried out on a LSRII flow cytometer (BD Biosciences, Heidelberg, Germany). Flow cytometric data were analyzed with BD FACSDiva or FlowJo software (FLOWJO, LLC, Ashland, OR, USA). Intracellular staining for MCL-1 and BCL-2 (anti-MCL-1 [clone D2W9E, Cell Signaling Technology, Leiden, The Netherlands] and matched isotype control [clone DA1E, Cell Signaling Technology]; anti-BCL-2 [clone Bcl-2/100, BD Bioscience] and matched isotype control [clone MOPC-21, BD Bioscience]) within MEC-1 and primary CLL cells was performed with the FoxP3 / Transcription factor staining buffer set (eBioscience/Thermo Fisher Scientific, Dreieich, Germany) according to the manufacturer’s instructions. Before permeabilization and antibody incubation cells were stained with a fixable viability dye (eFluor 450, eBioscience/Thermo Fisher Scientific). Before adding the anti-MCL-1 and anti-BCL-2 antibodies permeabilized cells were blocked with 2% mouse serum and 2% rabbit serum (Sigma-Aldrich) in permeabilization buffer. Intracellullar murine lymphocyte staining for Bcl-2 was carried out with the BD Cytofix/Cytoperm kit according to the manufacturer’s instructions. A Hamster Anti-mouse Bcl-2 (clone 3F119, BD Biosciences) and a corresponding isotype control (clone A19-3) were used. Dead cells and doublets were excluded by and FSC/SSC gating and positive DAPI or eFluor 450 viability dye staining, respectively. To assess the impact of LDC526 on the cell-cycle status of MEC-1 cells we used the BrdU Flow Kit according to the manufacturer’s protocol (BD Bioscience). […]
Data were analyzed with GraphPad Prism 7 software. Differences were assessed by unpaired or paired Student t tests if not indicated otherwise. […]

Chain of CDK4 (P11802 whole entry): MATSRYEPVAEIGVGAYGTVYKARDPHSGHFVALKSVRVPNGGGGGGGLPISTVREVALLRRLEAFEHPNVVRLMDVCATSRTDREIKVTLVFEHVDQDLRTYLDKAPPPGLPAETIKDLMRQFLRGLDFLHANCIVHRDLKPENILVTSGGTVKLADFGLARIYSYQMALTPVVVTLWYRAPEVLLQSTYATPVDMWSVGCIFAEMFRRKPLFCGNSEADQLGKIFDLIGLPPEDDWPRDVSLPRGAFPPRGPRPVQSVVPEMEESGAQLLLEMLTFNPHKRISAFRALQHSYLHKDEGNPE
Chain of CDK4 (P24385 whole entry partner): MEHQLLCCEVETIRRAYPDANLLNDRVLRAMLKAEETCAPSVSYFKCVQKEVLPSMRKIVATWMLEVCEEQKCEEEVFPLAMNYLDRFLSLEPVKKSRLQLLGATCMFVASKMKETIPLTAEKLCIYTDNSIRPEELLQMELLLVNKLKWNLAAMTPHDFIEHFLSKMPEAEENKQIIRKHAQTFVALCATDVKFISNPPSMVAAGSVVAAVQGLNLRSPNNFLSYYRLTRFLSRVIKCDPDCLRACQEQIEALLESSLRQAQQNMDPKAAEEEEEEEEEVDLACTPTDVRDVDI

COc1cc(F)ccc1-c1ncnc(Nc2cccc(CS(N)(=O)=O)c2)n1 [LDC526, (3-((4-(4-fluoro-2-methoxyphenyl)-1,3,5-triazin-2-yl)amino)phenyl)methane-sulfonamide]
selectivity versus CDK9 compared to CDK4 (CDK4): 291 fold
MEC-1 apoptosis (Annexin V+, DAPI-) (MEC-1 cells; 4 hours, 500 nM and 1 μM): significantly increased MEC-1 apoptosis
intracellular MCL-1 protein levels in MEC-1 (MEC-1 cells; 4 hours, increasing concentrations): reduced
MEC-1 S-phase entry (BrdU) (MEC-1 cells; 24 hours, 10 μM): significantly decreased
MEC-1 cell cycle (BrdU) (MEC-1 cells; 24 hours, concentrations up to 1 μM): did not alter the cell cycle
IC50 (MEC-1 cells; Homo sapiens, MEC1, 48 hours incubation, read-out: IC50, MEC-1 absolute viable cell numbers): 550 nM
